The values below come from article PMC2925244 (Current biology : CB, 2010).

Holding throughout (format): cell-based
In one assay the target is T1, hTAS2R31 (Homo sapiens, UniProt P59538).
T1 sequence (P59538 1-309): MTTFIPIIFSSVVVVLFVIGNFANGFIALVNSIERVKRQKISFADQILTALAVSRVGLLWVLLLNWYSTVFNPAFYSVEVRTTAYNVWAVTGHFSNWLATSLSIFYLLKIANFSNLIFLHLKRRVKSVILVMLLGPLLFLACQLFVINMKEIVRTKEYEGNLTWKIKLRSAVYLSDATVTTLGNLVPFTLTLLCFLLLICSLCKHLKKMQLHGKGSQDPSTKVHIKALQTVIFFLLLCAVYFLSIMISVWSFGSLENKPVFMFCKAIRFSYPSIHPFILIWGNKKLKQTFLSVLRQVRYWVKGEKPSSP
Briefly: FLIPR calcium imaging in HEK293 cells stably expressing hTAS2R31 and G16gust44.

Another assay deals with T2, hTAS2R7 (Homo sapiens, UniProt Q9NYW3).
T2 sequence (Q9NYW3 1-318): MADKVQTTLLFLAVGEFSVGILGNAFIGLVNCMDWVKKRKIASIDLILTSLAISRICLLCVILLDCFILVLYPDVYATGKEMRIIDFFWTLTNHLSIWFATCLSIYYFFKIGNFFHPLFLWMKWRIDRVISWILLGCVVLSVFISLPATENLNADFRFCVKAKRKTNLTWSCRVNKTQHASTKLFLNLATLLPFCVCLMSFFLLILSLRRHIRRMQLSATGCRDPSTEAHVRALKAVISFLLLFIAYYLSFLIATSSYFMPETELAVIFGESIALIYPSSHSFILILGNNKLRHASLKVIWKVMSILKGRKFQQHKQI
The assay is described as follows: calcium imaging in transfected cells, […] GIV3727 against […] cromolyn. Conditions: read-out: % activation in presence of GIV3727.

The target of a further assay is hTAS2R40 (Homo sapiens, UniProt P59535). The assay is described as follows: calcium imaging in transfected cells, […] GIV3727 against […] cohumulone. The settings on record: read-out: % activation in presence of GIV3727.
Sequence of hTAS2R40 (P59535 whole entry): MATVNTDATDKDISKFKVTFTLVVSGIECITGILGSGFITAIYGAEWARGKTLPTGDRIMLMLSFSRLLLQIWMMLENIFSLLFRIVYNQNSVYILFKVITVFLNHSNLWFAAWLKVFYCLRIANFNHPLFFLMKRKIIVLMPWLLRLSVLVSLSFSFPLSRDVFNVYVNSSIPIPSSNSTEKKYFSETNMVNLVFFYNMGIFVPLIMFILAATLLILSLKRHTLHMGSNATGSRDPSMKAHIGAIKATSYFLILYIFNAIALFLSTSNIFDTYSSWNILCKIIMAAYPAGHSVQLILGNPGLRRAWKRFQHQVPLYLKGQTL
The target of assay [1] is T3, hTAS2R43 (Homo sapiens, UniProt P59537).
T3 sequence (P59537 1-309): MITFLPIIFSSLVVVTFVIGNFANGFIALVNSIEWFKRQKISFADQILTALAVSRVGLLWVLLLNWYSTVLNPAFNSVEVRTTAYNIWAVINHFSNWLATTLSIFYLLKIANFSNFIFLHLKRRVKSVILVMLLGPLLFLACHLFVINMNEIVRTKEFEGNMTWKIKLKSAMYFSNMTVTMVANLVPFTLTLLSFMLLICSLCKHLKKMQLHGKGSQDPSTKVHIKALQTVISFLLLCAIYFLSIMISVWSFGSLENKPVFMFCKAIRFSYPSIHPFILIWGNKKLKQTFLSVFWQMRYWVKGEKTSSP
Briefly: calcium imaging in transfected cells, […] GIV3727 against […] aristolochic acid. The settings on record: read-out: % activation in presence of GIV3727.

A further assay concerns the target T4, hTAS2R4 (Homo sapiens, UniProt Q9NYW5).
T4 sequence (Q9NYW5 1-299): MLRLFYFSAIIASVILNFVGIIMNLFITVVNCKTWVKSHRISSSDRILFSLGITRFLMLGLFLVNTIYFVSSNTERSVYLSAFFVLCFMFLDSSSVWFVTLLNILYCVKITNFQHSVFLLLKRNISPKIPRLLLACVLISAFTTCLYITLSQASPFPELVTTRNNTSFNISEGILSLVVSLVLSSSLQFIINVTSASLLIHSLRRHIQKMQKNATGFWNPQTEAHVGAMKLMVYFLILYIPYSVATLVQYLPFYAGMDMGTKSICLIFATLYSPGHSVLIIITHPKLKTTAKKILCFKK
The assay is described as follows: calcium imaging in transfected cells, […] GIV3727 against […] colchicine. Conditions: read-out: % activation in presence of GIV3727.

In assay [2] the target is T3, hTAS2R43. Briefly: calcium imaging in transfected cells, agonist at […].

The term IC50 denotes the concentration needed to halve the response being measured. As to `CC1CCC(CCCC(=O)O)C1(C)C` (stereo not drawn) [GIV3727, 4-(2,2,3-trimethylcyclopentyl)butanoic acid], at hTAS2R31, the concentration for half-maximal inhibition (IC50) stood at 6.4 ± 2.4 µM. Further, the activity at 25 µM on hTAS2R7 is 47.8 ± 17%; on hTAS2R40, 3.2 ± 6.5%; on hTAS2R43 [1], 2.5 ± 4.9%; on hTAS2R4, 45.8 ± 17.4%.

In the case of `COc1cccc2c1cc([N+](=O)[O-])c1c(C(=O)O)cc3c(c12)OCO3` [aristolochic acid], the “calcium imaging in transfected cells, agonist at 0.3 μM” value on hTAS2R43 [2] was “confers sensitivity to aristolochic acid, which activates hTAS2R43 but is inactive in the native hTAS2R46 (Figure S4)”.
